Assay results published in ChEMBL document CHEMBL1201862, “PubChem BioAssay data set” (2004).
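Method: 48-hour compound exposure of cells in 96-well plates, five concentrations, linear interpolation of endpoints. GI50: concentration for 50% inhibition of growth.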 The source made the active and inactive calls. Cut-off read from the data, not from the text of the source: active = GI50 up to about 1.1 µM and inactive = higher.

Assays:
Experiment in all cases: NCI-60 cell line screen, 48 h
[1] = system: 786-0
[2] = system: A498
[3] = system: A549
[4] = system: ACHN
[5] = system: BT-549
[6] = system: CCRF-CEM
[7] = system: COLO 205
[8] = system: DU-145
[9] = system: EKVX
[10] = system: HCC 2998
[11] = system: HCT-116
[12] = system: HCT-15
[13] = system: HL-60
[14] = system: HOP-62
[15] = system: HT-29
[16] = system: Hs-578T
[17] = system: IGROV-1
[18] = system: K562
[19] = system: KM12
[20] = system: LOX IMVI
[21] = system: M14
[22] = system: MCF7
[23] = system: MDA-MB-231
[24] = system: MDA-MB-435
[25] = system: MDA-N
[26] = system: MOLT-4
[27] = system: Malme-3M
[28] = system: NCI-H226
[29] = system: NCI-H460
[30] = system: NCI-H522
[31] = system: NCI/ADR-RES
[32] = system: OVCAR-3
[33] = system: OVCAR-4
[34] = system: OVCAR-5
[35] = system: OVCAR-8
[36] = system: PC-3
[37] = system: RPMI-8226
[38] = system: RXF 393
[39] = system: SF-268
[40] = system: SF-295
[41] = system: SF-539
[42] = system: SK-MEL-28
[43] = system: SK-MEL-2
[44] = system: SK-MEL-5
[45] = system: SK-OV-3
[46] = system: SN12C
[47] = system: SNB-19
[48] = system: SNB-75
[49] = system: SR
[50] = system: SW-620
[51] = system: T47D
[52] = system: TK-10
[53] = system: U-251
[54] = system: UACC-257
[55] = system: UACC-62
[56] = system: UO-31

## CN1CCC(CNC(=O)CCCCCCCCC(=O)NCC2(c3ccccc3)CCN(C)CC2)(c2ccccc2)CC1
[1]
  GI50: 52.4 µM (inactive)
[2]
  GI50: > 100 µM (inactive)
[3]
  GI50: > 100 µM (inactive)
[4]
  GI50: > 100 µM (inactive)
[5]
  GI50: > 100 µM (inactive)
[6]
  GI50: 84.7 µM (inactive)
[7]
  GI50: 69.7 µM (inactive)
[8]
  GI50: > 100 µM (inactive)
[9]
  GI50: 8.22 µM (inactive)
[10]
  GI50: > 100 µM (inactive)
[11]
  GI50: 60.1 µM (inactive)
[12]
  GI50: > 100 µM
[13]
  GI50: > 100 µM (inactive)
[14]
  GI50: > 100 µM (inactive)
[15]
  GI50: 45.5 µM (inactive)
[16]
  GI50: 84.1 µM (inactive)
[17]
  GI50: > 100 µM (inactive)
[18]
  GI50: 77.1 µM (inactive)
[19]
  GI50: > 100 µM (inactive)
[20]
  GI50: > 100 µM (inactive)
[21]
  GI50: 57.3 µM (inactive)
[22]
  GI50: > 100 µM (inactive)
[23]
  GI50: > 100 µM (inactive)
[24]
  GI50: > 100 µM (inactive)
[25]
  GI50: > 100 µM (inactive)
[26]
  GI50: > 100 µM (inactive)
[27]
  GI50: > 100 µM (inactive)
[28]
  GI50: > 100 µM (inactive)
[29]
  GI50: > 100 µM (inactive)
[30]
  GI50: > 100 µM (inactive)
[31]
  GI50: > 100 µM (inactive)
[32]
  GI50: > 100 µM (inactive)
[33]
  GI50: > 100 µM (inactive)
[34]
  GI50: > 100 µM (inactive)
[35]
  GI50: > 100 µM (inactive)
[36]
  GI50: > 100 µM (inactive)
[37]
  GI50: > 100 µM (inactive)
[38]
  GI50: > 100 µM (inactive)
[39]
  GI50: 14.3 µM (inactive)
[40]
  GI50: > 100 µM (inactive)
[41]
  GI50: 15 µM (inactive)
[42]
  GI50: > 100 µM (inactive)
[43]
  GI50: > 100 µM (inactive)
[44]
  GI50: > 100 µM (inactive)
[45]
  GI50: > 100 µM (inactive)
[46]
  GI50: > 100 µM (inactive)
[47]
  GI50: > 100 µM (inactive)
[48]
  GI50: 44.2 µM (inactive)
[49]
  GI50: > 100 µM (inactive)
[50]
  GI50: > 100 µM (inactive)
[51]
  GI50: 30.7 µM (inactive)
[52]
  GI50: > 100 µM (inactive)
[53]
  GI50: > 100 µM (inactive)
[54]
  GI50: 38.8 µM (inactive)
[55]
  GI50: > 100 µM (inactive)
[56]
  GI50: > 100 µM (inactive)
